# Source: patent US8048862B2, “Macrocyclic inhibitors of hepatitis C virus replication” (priority 2008, dated 2011)
# Like-named read-outs stand apart in the source and are kept apart here.
# Tests used:
# NS3/NS4 complexes = NS3/NS4 complexes (Hepatitis C virus genotype 1a, UniProt P27958); test: NS3/NS4 inhibition activity (IC50); assay type: biochemical
# Procedure, shortened: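 Buffer: 50 mM Tris-HCl (pH 7.5), 10 mM DTT, 25 μM NS4A peptide, 0.6 mM LDAO and 15% glycerol. Assays were run at 23 °C with preformed NS3/NS4 complex, and the compound concentration giving inhibition was derived as an IC50.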
# hepatitis C replicon = hepatitis C replicon EC50; assay type: cell-based; conditions: Hepatitis C virus
# From the text: NS3-NS4 inhibition activity can be determined using known assay methods.
# [1] = Table 3, hepatitis C replicon, read-out: EC50
# Chain of NS3/NS4 complexes (P27958 1027-1657): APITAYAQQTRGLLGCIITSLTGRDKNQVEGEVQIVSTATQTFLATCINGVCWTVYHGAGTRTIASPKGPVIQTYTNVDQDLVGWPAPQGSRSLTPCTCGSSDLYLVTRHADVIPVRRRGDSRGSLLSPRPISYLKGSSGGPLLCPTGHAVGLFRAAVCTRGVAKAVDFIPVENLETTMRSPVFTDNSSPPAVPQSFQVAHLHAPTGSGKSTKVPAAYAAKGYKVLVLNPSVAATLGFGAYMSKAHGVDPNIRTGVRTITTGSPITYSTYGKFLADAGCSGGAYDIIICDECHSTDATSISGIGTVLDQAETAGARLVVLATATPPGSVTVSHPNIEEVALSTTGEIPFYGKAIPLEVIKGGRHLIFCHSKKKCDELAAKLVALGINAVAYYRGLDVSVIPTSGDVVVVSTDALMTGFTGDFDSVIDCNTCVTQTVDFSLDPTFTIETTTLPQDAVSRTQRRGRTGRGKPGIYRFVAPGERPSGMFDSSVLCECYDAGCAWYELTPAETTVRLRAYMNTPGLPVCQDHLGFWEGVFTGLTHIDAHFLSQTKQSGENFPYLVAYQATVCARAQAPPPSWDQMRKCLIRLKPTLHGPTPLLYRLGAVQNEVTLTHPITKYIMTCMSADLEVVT
# Chain of NS3/NS4 complexes (P27958 1658-1711): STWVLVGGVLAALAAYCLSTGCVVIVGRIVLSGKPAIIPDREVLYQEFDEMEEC
Structure (SMILES),"IC50 (NS3/NS4 complexes; Table 3, read-out: IC50)",EC50 (hepatitis C replicon; [1]),"IC50 (NS3/NS4 complexes; IC50, Table 3)",EC50 (hepatitis C replicon)
CC(C)(C)OC(=O)N[C@H]1CCCCC/C=C\[C@@H]2C[C@@]2(C(=O)NS(=O)(=O)C2(C)CC2)NC(=O)[C@@H]2C[C@@H](Oc3nc4ccc(F)cc4s3)CN2C1=O [Compound 1011],< 10 nM,10 to 100 nM,–,–
CC(C)(C)OC(=O)N[C@H]1CCCCC/C=C\[C@@H]2C[C@@]2(C(=O)NS(=O)(=O)C2CC2)NC(=O)[C@@H]2C[C@@H](Oc3nc4ccc(Br)cc4s3)CN2C1=O [Compound 1012],< 10 nM,< 10 nM,–,–
CC(C)(C)OC(=O)N[C@H]1CCCCC/C=C\[C@@H]2C[C@@]2(C(=O)NS(=O)(=O)C2(C)CC2)NC(=O)[C@@H]2C[C@@H](Oc3nc4ccc(Br)cc4s3)CN2C1=O [Compound 1013],< 10 nM,< 10 nM,–,–
Cc1ccc2nc(O[C@@H]3C[C@H]4C(=O)N[C@]5(C(=O)NS(=O)(=O)C6(C)CC6)C[C@H]5/C=C\CCCCC[C@H](NC(=O)OC(C)(C)C)C(=O)N4C3)sc2c1 [Compound 1014],< 10 nM,< 10 nM,–,–
Cc1ccc2nc(O[C@@H]3C[C@H]4C(=O)N[C@]5(C(=O)NS(=O)(=O)C6CC6)C[C@H]5/C=C\CCCCC[C@H](NC(=O)OC(C)(C)C)C(=O)N4C3)sc2c1 [Compound 1015],< 10 nM,< 10 nM,–,–
COc1ccc2nc(O[C@@H]3C[C@H]4C(=O)N[C@]5(C(=O)NS(=O)(=O)C6(C)CC6)C[C@H]5/C=C\CCCCC[C@H](NC(=O)OC(C)(C)C)C(=O)N4C3)sc2c1 [Compound 1016],< 10 nM,10 to 100 nM,–,–
CC(C)(C)OC(=O)N[C@H]1CCCCC/C=C\[C@@H]2C[C@@]2(C(=O)NS(=O)(=O)C2CC2)NC(=O)[C@@H]2C[C@@H](Oc3nc4ccc(Cl)cc4s3)CN2C1=O [Compound 1018],< 10 nM,10 to 100 nM,–,–
CC(C)(C)OC(=O)N[C@H]1CCCCC/C=C\[C@@H]2C[C@@]2(C(=O)NOc2ccccc2)NC(=O)[C@@H]2C[C@@H](Oc3nc4ccccc4o3)CN2C1=O [Compound 1027],> 100 nM,> 100 nM,–,–
CC(C)(C)OC(=O)N[C@H]1CCCCC/C=C\[C@@H]2C[C@@]2(C(=O)NS(=O)(=O)C2(C)CC2)NC(=O)[C@@H]2C[C@@H](Oc3nc4ccccc4o3)CN2C1=O [Compound 1028],< 10 nM,10 to 100 nM,–,–
CC(C)(C)OC(=O)N[C@H]1CCCCC/C=C\[C@@H]2C[C@@]2(C(=O)NS(=O)(=O)C2CC2)NC(=O)[C@@H]2C[C@@H](Oc3nc4ccccc4o3)CN2C1=O [Compound 1029],< 10 nM,10 to 100 nM,–,–
Cc1ccc2oc(O[C@@H]3C[C@H]4C(=O)N[C@]5(C(=O)NS(=O)(=O)C6CC6)C[C@H]5/C=C\CCCCC[C@H](NC(=O)OC(C)(C)C)C(=O)N4C3)nc2c1 [Compound 1030],< 10 nM,10 to 100 nM,–,–
Cc1cccc2oc(O[C@@H]3C[C@H]4C(=O)N[C@]5(C(=O)NS(=O)(=O)C6CC6)C[C@H]5/C=C\CCCCC[C@H](NC(=O)OC(C)(C)C)C(=O)N4C3)nc12 [Compound 1031],< 10 nM,10 to 100 nM,–,–
CC(C)(C)OC(=O)N[C@H]1CCCCC/C=C\[C@@H]2C[C@@]2(C(=O)NS(=O)(=O)C2CC2)NC(=O)[C@@H]2C[C@@H](Oc3nc4cc(Cl)ccc4o3)CN2C1=O [Compound 1032],< 10 nM,> 100 nM,–,–
Cc1ccc2nc(O[C@@H]3C[C@H]4C(=O)N[C@]5(C(=O)NS(=O)(=O)C6CC6)C[C@H]5/C=C\CCCCC[C@H](NC(=O)OC(C)(C)C)C(=O)N4C3)oc2c1 [Compound 1033],< 10 nM,10 to 100 nM,–,–
CC(C)(C)OC(=O)N[C@H]1CCCCC/C=C\[C@@H]2C[C@@]2(C(=O)NS(=O)(=O)C2CC2)NC(=O)[C@@H]2C[C@@H](Oc3nc4cc(F)ccc4o3)CN2C1=O [Compound 1034],< 10 nM,10 to 100 nM,–,–
COc1ccc2oc(O[C@@H]3C[C@H]4C(=O)N[C@]5(C(=O)NS(=O)(=O)C6CC6)C[C@H]5/C=C\CCCCC[C@H](NC(=O)OC(C)(C)C)C(=O)N4C3)nc2c1 [Compound 1035],< 10 nM,> 100 nM,–,–
CC(C)(C)OC(=O)N[C@H]1CCCCC/C=C\[C@@H]2C[C@@]2(C(=O)NS(=O)(=O)C2CC2)NC(=O)[C@@H]2C[C@@H](Oc3nc4ccc(Cl)cc4o3)CN2C1=O [Compound 1036],< 10 nM,> 100 nM,–,–
CC(C)(C)OC(=O)N[C@H]1CCCCC/C=C\[C@@H]2C[C@@]2(C(=O)NS(=O)(=O)C2CC2)NC(=O)[C@@H]2C[C@@H](Oc3nc4ccc(F)cc4o3)CN2C1=O [Compound 1037],< 10 nM,> 100 nM,–,–
CC(C)(C)OC(=O)N[C@H]1CCCCC/C=C\[C@@H]2C[C@@]2(C(=O)NS(=O)(=O)C2CC2)NC(=O)[C@@H]2C[C@@H](Oc3nc4cccc(F)c4o3)CN2C1=O [Compound 1038],< 10 nM,10 to 100 nM,–,–
Cc1cccc2nc(O[C@@H]3C[C@H]4C(=O)N[C@]5(C(=O)NS(=O)(=O)C6CC6)C[C@H]5/C=C\CCCCC[C@H](NC(=O)OC(C)(C)C)C(=O)N4C3)sc12 [Compound 1040],< 10 nM,< 10 nM,–,–

Structure (SMILES),"IC50 (NS3/NS4 complexes; Table 3, read-out: IC50)",EC50 (hepatitis C replicon; [1]),"IC50 (NS3/NS4 complexes; IC50, Table 3)",EC50 (hepatitis C replicon)
CC(C)(C)OC(=O)N[C@H]1CCCCC/C=C\[C@@H]2C[C@@]2(C(=O)NS(=O)(=O)C2(C)CC2)NC(=O)[C@@H]2C[C@@H](Oc3nc4cc(Cl)ccc4o3)CN2C1=O [Compound 1046],< 10 nM,> 100 nM,–,–
CCn1c(O[C@@H]2C[C@H]3C(=O)N[C@]4(C(=O)NS(=O)(=O)C5(C)CC5)C[C@H]4/C=C\CCCCC[C@H](NC(=O)OC(C)(C)C)C(=O)N3C2)nc2ccccc21 [Compound 1048],< 10 nM,< 10 nM,–,–
CC(C)(C)OC(=O)N[C@H]1CCCCC/C=C\[C@@H]2C[C@@]2(C(=O)NS(=O)(=O)C2(C)CC2)NC(=O)[C@@H]2C[C@@H](Oc3nc4ccccc4n3Cc3ccccc3)CN2C1=O [Compound 1050],< 10 nM,10 to 100 nM,–,–
CC(C)(C)OC(=O)N[C@H]1CCCCC/C=C\[C@@H]2C[C@@]2(C(=O)NS(=O)(=O)C2CC2)NC(=O)[C@@H]2C[C@@H](Oc3nc4ccccc4n3Cc3ccccc3)CN2C1=O [Compound 1051],< 10 nM,10 to 100 nM,–,–
CC(C)(C)OC(=O)N[C@H]1CCCCC/C=C\[C@@H]2C[C@@]2(C(=O)NCCC(=O)NCc2ccccc2)NC(=O)[C@@H]2C[C@@H](OC(=O)N3Cc4cccc(F)c4C3)CN2C1=O [Compound 1052],> 100 nM,> 100 nM,–,–
CC(C)(C)OC(=O)N[C@H]1CCCCC/C=C\[C@@H]2C[C@@]2(C(=O)NCC(=O)NCc2ccccc2)NC(=O)[C@@H]2C[C@@H](OC(=O)N3Cc4cccc(F)c4C3)CN2C1=O [Compound 1053],–,–,10 to 100 nM,> 100 nM
CC(C)(C)OC(=O)N[C@H]1CCCCC/C=C\[C@@H]2C[C@@]2(C(=O)N2CCC[C@@H]2C(=O)NCc2ccccc2)NC(=O)[C@@H]2C[C@@H](OC(=O)N3Cc4cccc(F)c4C3)CN2C1=O [Compound 1057],–,–,> 100 nM,> 100 nM
CC(C)(C)OC(=O)N[C@H]1CCCCC/C=C\[C@@H]2C[C@@]2(C(=O)NCCC(=O)NCc2ccccc2)NC(=O)[C@@H]2C[C@@H](O)CN2C1=O [Compound 1058],> 100 nM,> 100 nM,–,–
CC(=O)O[C@@H]1C[C@H]2C(=O)N[C@]3(C(=O)N4CCC[C@H]4C(=O)NCc4ccccc4)C[C@H]3/C=C\CCCCC[C@H](NC(=O)OC(C)(C)C)C(=O)N2C1 [Compound 1061],–,> 100 nM,> 100 nM,–
CO[C@@H]1C[C@H]2C(=O)N[C@]3(C(=O)NCCC(=O)NCc4ccccc4)C[C@H]3/C=C\CCCCC[C@H](NC(=O)OC(C)(C)C)C(=O)N2C1 [Compound 1062],> 100 nM,> 100 nM,–,–
CN(C)C(=O)O[C@@H]1C[C@H]2C(=O)N[C@]3(C(=O)NS(=O)(=O)C4(C)CC4)C[C@H]3/C=C\CCCCC[C@H](NC(=O)OC(C)(C)C)C(=O)N2C1 [Compound 1065],< 10 nM,–,–,> 100 nM
CC(=O)O[C@@H]1C[C@H]2C(=O)N[C@]3(C(=O)NS(=O)(=O)C4CC4)C[C@H]3/C=C\CCCCC[C@H](NC(=O)OC(C)(C)C)C(=O)N2C1 [Compound 1071],< 10 nM,> 100 nM,–,–
CC(C)(C)OC(=O)N[C@H]1CCCCC/C=C\[C@@H]2C[C@@]2(C(=O)NS(=O)(=O)C2(C)CC2)NC(=O)[C@@H]2C[C@@H](OC(=O)N3CCCC3)CN2C1=O [Compound 1072],< 10 nM,> 100 nM,–,–
COc1ccc2c(O[C@@H]3C[C@H]4C(=O)N[C@]5(C(=O)NS(=O)(=O)C6CC6)C[C@H]5/C=C\CCCCC[C@H](NC(=O)OC(C)(C)C)C(=O)N4C3)cc(-c3ccccc3)nc2c1 [Compound 1075],< 10 nM,< 10 nM,–,–
CC(C)n1c(O[C@@H]2C[C@H]3C(=O)N[C@]4(C(=O)NS(=O)(=O)C5(C)CC5)C[C@H]4/C=C\CCCCC[C@H](NC(=O)OC(C)(C)C)C(=O)N3C2)nc2ccccc21 [Compound 1077],< 10 nM,< 10 nM,–,–
COc1ccc2c(O[C@@H]3C[C@H]4C(=O)N[C@]5(C(=O)NS(=O)(=O)C6(C)CC6)C[C@H]5/C=C\CCCCC[C@H](NC(=O)OC(C)(C)C)C(=O)N4C3)cc(-c3nc(C(C)C)cs3)nc2c1C [Compound 1078],< 10 nM,< 10 nM,–,–
CC(C)(C)OC(=O)N[C@H]1CCCCC/C=C\[C@@H]2C[C@@]2(C(=O)NS(=O)(=O)C2(C)CC2)NC(=O)[C@@H]2C[C@@H](Oc3nc4ccccc4[nH]3)CN2C1=O [Compound 1079],< 10 nM,–,–,> 100 nM
CCn1c(O[C@@H]2C[C@H]3C(=O)N[C@]4(C(=O)NS(=O)(=O)C5(C)CC5)C[C@H]4CCCCCCC[C@H](NC(=O)OC(C)(C)C)C(=O)N3C2)nc2ccccc21 [Compound 1080],< 10 nM,< 10 nM,–,–
CC(C)(C)OC(=O)N[C@H]1CCCCCCC[C@@H]2C[C@@]2(C(=O)NS(=O)(=O)C2(C)CC2)NC(=O)[C@@H]2C[C@@H](OC(=O)N3Cc4cccc(F)c4C3)CN2C1=O [Compound 1081],< 10 nM,< 10 nM,–,–
CC(C)(C)OC(=O)N[C@H]1CCCCC/C=C\[C@@H]2C[C@@]2(C(=O)NS(=O)(=O)CC(=O)Nc2ccccc2)NC(=O)[C@@H]2C[C@@H](OC(=O)N3Cc4cccc(F)c4C3)CN2C1=O [Compound 1082],< 10 nM,–,–,> 100 nM
